Laboratory results as given in PMC11790956, “A microscale thermophoresis-based enzymatic RNA methyltransferase assay enables the discovery of DNMT2 inhibitors” (Communications Chemistry, 2025).
Entries after “also recorded” stand apart in the source; their conditions may differ.

Columns and labels:
DNMT2-tRNA complex = biological target: T1, DNMT2-tRNA complex (Homo sapiens, UniProt O14717); assay: Electrophoretic mobility shift assay (EMSA) of the DNMT2-tRNA complex; type: binding; conditions: 500 µM compound, DNMT2 10 µM, tRNAAsp 5 µM
T1 construct: made in house
T1 sequence (O14717 1-391): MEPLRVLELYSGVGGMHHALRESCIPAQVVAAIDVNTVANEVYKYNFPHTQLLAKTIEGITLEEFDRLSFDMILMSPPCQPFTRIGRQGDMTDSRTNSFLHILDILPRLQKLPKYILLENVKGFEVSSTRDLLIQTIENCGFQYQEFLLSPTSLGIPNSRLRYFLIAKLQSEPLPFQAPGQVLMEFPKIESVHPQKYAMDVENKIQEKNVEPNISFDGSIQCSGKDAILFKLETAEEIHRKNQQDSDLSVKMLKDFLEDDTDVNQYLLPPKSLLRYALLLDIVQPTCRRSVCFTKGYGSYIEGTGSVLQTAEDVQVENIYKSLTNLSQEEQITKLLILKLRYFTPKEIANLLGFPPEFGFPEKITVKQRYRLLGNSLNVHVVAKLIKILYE
Procedure: We speculated these hits might bind very weakly to the tRNA-DNMT2 interaction site and by this inhibit DNMT2 activity. To test this hypothesis, we performed an electrophoretic mobility shift assay (EMSA) using tRNA^Asp (5 µM) and DNMT2 (10 µM) compared to the tRNA sample in absence of the DNMT2 protein (SI Fig. 4)[33]. […] Subsequently, we treated the DNMT2-tRNA complex with all hit compounds at 500 µM and observed their potential to disrupt the complex.
DNMT2 (10 µM) was mixed with tRNA^Asp (5 µM) and treated with 500 µM of the respective screening hit compound in DNMT2 assay buffer (100 mM Tris-HCl, pH 8, 100 mM NH4OAc, 0.1 mM EDTA, 10 mM MgCl2, 10 mM DTT). Subsequently, reaction samples (each 5 µL) were loaded to a native 10% polyacrylamide gel and separated electrophoretically (1 h, 180 V) in 1x TBE. RNA was stained in situ with 1x GelRed and PAGE analysis was conducted by fluorescence scanning at an excitation wavelength of 532 nm (Amersham Typhoon 9400). Positive control: DNMT2+tRNA (band at high molecular weights); negative control: only tRNA (band at low molecular weights).
SI Figure 4. Electrophore?c mobility shi? assay (EMSA) to inves?gate the inﬂuence of screening hits on the DNMT2-tRNA complex forma?on. D NMT2 (10 µ M ) was mixe d w it h t RNAAsp (5 µM) and treated with 50 0 µM of the respec?ve screening hit compound in DNMT2 assay buﬀer. All reac?on samples (each 5 µL) were loaded to a na?ve 10% polyacr ylamide gel and separated electrophore?cally (1 h, 1 80 V) in 1x TBE. RNA was stained in situ with 1x GelRed and PAGE analysis was conducted by ﬂuorescence scanning at an excita?on wavelength of 532 nm (Amersham Typhoon 9400). Po s i ? ve control: DNMT2+tRNA (band at high molecular weights); nega?ve control: only tRNA (band at low

DNMT2 [1] = biological target: T2, DNMT2 (Homo sapiens, UniProt O14717); assay: DNMT2 enzymatic split aptamer MST assay; type: biochemical; conditions: for IC50: MST-derived, 250 nM DNMT2, 5 µM tRNA, 0.9 µM SAM
T2 construct: made in house
T2 sequence (O14717 1-391): T1 sequence (O14717 1-391)
Procedure: The enzyme kinetics were characterized by calculating the Michaelis-Menten constant (KM or kcat) and inhibitory constants (IC50 resp. KI).
The final drug compound concentration was adjusted to 500 µM for the epigenetic drug library (Fig. 5) resp. 100 µM for the covalent compound library (Fig. 6), and the enzymatic reaction was incubated for 30 min at 25 °C. Subsequently, enzymatic reactions were terminated by the addition of 0.3% SDS, and the product SAH was quantified by the split aptamer MST assay (Figs. 5A, B, 6A).

DNMT2 [2] = biological target: T2, DNMT2; assay: DNMT2 fluorescence polarization (FP) FTAD displacement assay; type: binding
Procedure: Fluorescence polarization assays were conducted with a similar sample composition as described for FTAD-MST assays as described previously. Triplicates (50 µL) were prepared in black 96-well half-area plates (Greiner) and measured using a Spark 10 M plate reader (Tecan) equipped with polarization filters coupled to a monochromator setup (FTAD: λex = 480 nm, λem = 530 nm). Polarization values (in mP) were calculated from polarization-specific parallel and orthogonal fluorescence intensities according to the Tecan in-built calculation routine.
Reversibility of alexidine binding to DNMT2 was evaluated with a modified FP-assay setup. Briefly, reaction mixtures containing alexidine were prepared in black 96-well half-area plates, and after FP measurement, the volume of one well (50 µL) was collected and applied to a Zeba™ Spin Desalting Column (7 K MWCO) while 5 µL of a 10x DNMT2 buffer solution (500 mM HEPES, 1.5 M NaCl, 10 mM dithiothreitol (DTT), 1% PEG-8000, 0.5% polysorbate-20, pH 7.4) was placed in the collection tube attached to the SEC column. This procedure separated alexidine and restored the initial composition of the DNMT2 assay solution.
Kinetic FP assays were performed to assess the time-dependent inactivation of DNMT2 treated with covalent inhibitors. Briefly, samples contained 2 µM DNMT2, 100 nM FTAD probe, and 1.3% DMSO in DNMT2 MST buffer. Inhibitors were added from DMSO stocks. Negative inhibition control was performed by mock treatment with DMSO. Reactions were initiated by the addition of the Cpd 11 (adamantanyl-acryloylurea) and monitored for 120 min at 25 °C in a Tecan Spark 10 M plate reader (FTAD: λex = 480 nm, λem = 530 nm) The irreversible inhibition kinetics were analyzed as described previously[35],[36].

DNMT2 [3] = biological target: T2, DNMT2; assay: Fluorescent tracer displacement assay (FTAD-MST assay); type: binding
From the text: (§1) To further validate our findings on DNMT2, we compared the split aptamer inhibition assay results of both inhibitors with those obtained from a previously published orthogonal assay method, the radiometric ^3H incorporation assay[8],[26]. […] Using an additional non-enzymatic MTase assay technique, we also investigated the two DNMT2 inhibitors utilizing an orthogonal MST method based on a fluorescent tracer displacement assay (SI Fig. 1)[27],[28].
Fluorescent tracer displacement MST assays for orthogonal ligand evaluation were conducted as described previously. The samples contained 2 µM DNMT2, 100 nM FTAD probe, and 1.3% DMSO in MST buffer (50 mM HEPES, 150 mM NaCl, 1 mM dithiothreitol (DTT), 0.1% PEG-8000, 0.05% polysorbate-20, pH 7.4) supplemented with variable concentrations of the screening compounds. All samples were measured in triplicates in Monolith standard capillaries at 25 °C. The acquisition mode was set to “Nano-Blue” with an excitation power of 30% and a medium MST power. MST measurements were analyzed using the NT analysis software (version 1.5.41) and exported for statistical analysis and plotting in GraphPad Prism 7.01.

DNMT2 [4] = biological target: T2, DNMT2; assay: DNMT2 radiometric 3H incorporation assay; type: biochemical
Procedure: as §1
Radiometric DNMT2 assays were carried out as described previously. HTRF MTase assays with the commercial AptaFluor SAH assay kit (BellBrook Labs) were performed as described in the manufacturer’s manual in 96-well format.

[5] = tested on: aptaSAH1&2 SAH split aptamer; assay: Split aptamer (aptaSAH1&2) MST ligand titration; type: binding, D. aromatica
Procedure: To establish our experimental setup, we mixed both aptamer fragment oligonucleotides at equimolar concentrations (final: 50 nM) and titrated series of SAH resp. SAM dilutions to this prototypical SAH biosensor. […] Furthermore, MST assays require only 10 µL of sample volume per capillary compared to 30 µL per well in a 96-well plate supporting high-throughput applications in material consumption.
To evaluate the effect of inhibitors on DNMT2 activity, we used two known inhibitors, SHO108 and SH112. These SAH derivatives were selected based on their documented efficacy for DNMT2[8],[26].
For MTase assay detection by MST, enzyme reaction mixtures with a total volume of 10 µL per single treatment condition were prepared and incubated for the desired reaction times. Inhibitors were added from corresponding DMSO stocks to a final DMSO concentration of max. 5%. Afterward, reactions were quenched at a given reaction time by the addition of 1 µL sodium dodecyl sulfate (SDS, solution, 3% in water) per 10 µL reaction mixture and mixed well by pipetting. Subsequently, 1 µL of a 10× aptamer-containing detection master mix (200 mM Tris, pH 8.5, 200 mM MgCl2, 3 M NaCl, 10 mM urea, 0.2% Brij, 500 nM aptaSAH1, 500 nM aptaSAH2) was added to the quenched MTase reaction and incubated for 1 h at room temperature. Reaction mixtures were loaded directly to MST capillaries without further purification or sample processing.
MST experiments were carried out in at least technical triplicates using a Monolith NT.115 instrument (NanoTemper Technologies) using Monolith standard capillaries and the blue excitation laser setup. The instrument was calibrated according to the manufacturer’s instructions. General settings were applied for all MST experiments as follows: manual temperature control: 25 °C, fluorescence measurement before MST: 4 s, MST (IR laser) on: 20 s, fluorescence after MST: 2 s, delay: 25 s. The laser power was adjusted to optimize the signal-to-noise ratio and the fluorescence signal. LED and MST power settings were chosen individually for each sample by adjusting the LED power to yield fluorescence signals of at least 300 units (blue laser) or 3000 units (red laser) and the MST power to achieve an appropriate thermophoretic response (standard setting: medium MST power). MST measurements were analyzed using the NT analysis software (version 1.5.41) and exported for statistical analysis and plotting in GraphPad Prism 7.01.

[6] = inhibitor titrated up to 100 µM without enzyme or RNA substrate, compared to the SAH-positive control

c1cc(-c2cnn3cc(-c4ccc(OCCN5CCCCC5)cc4)cnc23)ccn1 [Cpd 1]
influence on DNMT2-tRNA complex formation (DNMT2-tRNA complex): showed the potential to reverse the complex formation

COc1cc2nc(N3CCCN(C)CC3)nc(NC3CCN(Cc4ccccc4)CC3)c2cc1OC [Cpd 2]
influence on DNMT2-tRNA complex formation (DNMT2-tRNA complex): showed the potential to reverse the complex formation

CCCCC(CC)CNC(=N)NC(=N)NCCCCCCNC(=N)NC(=N)NCC(CC)CCCC (centres unmarked) [Cpd 3, alexidine]
DNMT2 inhibition at concentrations <500 µM (DNMT2 [1]; enzymatic aptamer assay): showed inhibition | influence on DNMT2-tRNA complex formation (DNMT2-tRNA complex): do not inﬂuence the complex; also recorded: did not influence DNMT2-tRNA complex formation | fluorescence polarization in the presence of compound (DNMT2 [2]; DNMT2-FTAD complex alone 96 mP): 5 mP | Kd (DNMT2 [2]; DNMT2 FP assay, FTAD tracer): 364 µM | reversibility of binding (DNMT2 [2]; FP displacement with SEC separation): fully reversible binder | displacement of FTAD tracer / binding to SAH-binding site (DNMT2 [2]; FP library screening with FTAD tracer): binding to the SAH-binding site; also recorded: able to compete with the fluorescent SAH-analog | fluorescence polarization restored after size-exclusion chromatography (DNMT2 [2]; after SEC removal of compound): 92 mP | fluorescence polarization after second treatment (DNMT2 [2]; second treatment after SEC): 4 mP

CC(=O)c1cc([N+](=O)[O-])c(Sc2ccc(F)cc2F)s1 [Cpd 4]
influence on DNMT2-tRNA complex formation (DNMT2-tRNA complex): do not inﬂuence the complex; also recorded: unable to disrupt the protein-tRNA complex

Cc1ncc(Cl)cc1NCc1ccc(C(=O)N[C@@H](CC2CCCC2)C(=O)NC2CC2)s1 [Cpd 5]
influence on DNMT2-tRNA complex formation (DNMT2-tRNA complex): showed the potential to reverse the complex formation

COc1ccn2ncc(-c3nc4[nH]nc(NC(=O)c5ccc(F)cc5)c4cc3F)c2c1 [Cpd 6]
influence on DNMT2-tRNA complex formation (DNMT2-tRNA complex): showed the potential to reverse the complex formation

Cc1cc(Nc2cc(Cl)nc(Oc3ccc([N+](=O)[O-])cc3)n2)n[nH]1 [Cpd 7]
influence on DNMT2-tRNA complex formation (DNMT2-tRNA complex): do not inﬂuence the complex; also recorded: unable to disrupt the protein-tRNA complex

N[C@H](CNc1nc(-c2ccncc2)nc2sc3c(c12)CCCC3)Cc1ccccc1 [Cpd 8]
influence on DNMT2-tRNA complex formation (DNMT2-tRNA complex): showed the potential to reverse the complex formation

CNC(=O)Nc1ccc2c(c1)CCC21OC(=O)N(CC(=O)N(Cc2ccc(F)cc2)C(C)C(F)(F)F)C1=O (centres unmarked) [Cpd 9]
influence on DNMT2-tRNA complex formation (DNMT2-tRNA complex): showed the potential to reverse the complex formation

Cc1ccc(C(=O)COC(=O)c2cccc(NC(=O)c3ccc([N+](=O)[O-])cc3[N+](=O)[O-])c2)cc1 [Cpd 10]
influence on DNMT2-tRNA complex formation (DNMT2-tRNA complex): do not inﬂuence the complex; also recorded: unable to disrupt the protein-tRNA complex

Nc1ncnc2c1ncn2[C@@H]1O[C@H](CN(CC[C@H](N)C(=O)O)Cc2ccc(Cl)c(C(F)(F)F)c2)[C@@H](O)[C@H]1O [SH112, (S)-2-amino-4-((((2 R,3S,4 R,5 R)-5-(6-amino-9H-purin-9-yl)-3,4-dihydroxytetrahydrofuran-2-yl)methyl)(4-chloro-3-(trifluoromethyl)benzyl)amino)butanoic acid]
Kd (DNMT2 [3]): 7.8 µM | IC50 (DNMT2 [1]): 9.3 ± 1.7 µM | IC50 (DNMT2 [4]): 15.6 ± 3.9 µM | binding to split aptamer (MST shift) [5, 6]: not binding to the aptamer at relevant concentrations; also recorded: only minimal MST shifts

C#CCN(CC[C@H](N)C(=O)O)C[C@H]1O[C@@H](n2cnc3c(N)ncnc32)[C@H](O)[C@@H]1O [SHO108, (S)-2-amino-4-((((2 R,3S,4 R,5 R)-5-(6-amino-9H-purin-9-yl)-3,4-dihydroxytetrahydrofuran-2-yl)methyl)(prop-2-yn-1-yl)amino)butanoic acid]
Kd (DNMT2 [3]; MST FTAD tracer displacement, 2 µM DNMT2, 100 nM FTAD, read-out: KD): 4.7 µM | IC50 (DNMT2 [1]): 7.9 ± 1.8 µM | IC50 (DNMT2 [4]; orthogonal 3H-incorporation assay, read-out: IC50): 9.3 ± 1.8 µM | binding to split aptamer (MST shift) [5, 6]: not binding to the aptamer at relevant concentrations; also recorded: only minimal MST shifts

Nc1ncnc2c1ncn2[C@@H]1O[C@H](C[C@@H](N)CC[C@H](N)C(=O)O)[C@@H](O)[C@H]1O [sinefungin]
binding to split aptamer (MST shift) ([5]; SAH analogs at 10 µM, aptaSAH1&2 both 50 nM): slight MST shift
